In patent US11166928B2, “Migraine prevention and treatment” (UNIVERSITATS-KINDERSPITAL, priority 2016, dated 2021):
“Also recorded” adds a separate entry of the source. Like-named read-outs stand apart in the source and are kept apart here. Each block holds one compound with its values, some of them ahead of it.

How the values were obtained:
[1] = set-up: species or system human; conditions: in vivo, po
Description: (§1) Patients diagnosed with medium-high frequency or chronic migraine according to International Headache Society Classification version 3 by an experienced neurologist were included. They were excluded if they had any significant other neurological, psychiatric or medical disorder. A minimum average of 6 migraine days/month was required during the last 3 months. Ten migraine patients (age range: 25-61 years, 1 male, attack frequency range: 6-24 migraine days/months) were included in the pilot study and randomly assigned to four conditions: 1) L-leucine (LL), 2) L-lysine (LY), 3) racemic βHB, 4) D-βHB.
(§2) L-leucine (LL) and L-lysine (LY) are the two completely ketogenic amino acids. Via various steps, unused ketogenic amino acids (i.e. leucine or lysine) are metabolised into KB. While this is commonly known, to the best of our knowledge no data exists on the extent and time frame of such ketogenic amino acids to raise blood βHB levels. For the pharmacokinetics, four migraine patients were instructed to ingest either 13 g LL or 13 g LY on an empty stomach. Blood βHB and glucose concentrations were measured using a portable point-of-care blood ketone meter (Precision Xtra®) and matching test stripes at 5 points in time: 1) Baseline (directly before consumption), 2) 0.5 h after consumption, 3) 1 h after consumption, 4) 2 h after consumption, 5) 3 h after consumption and 6) 4 h after consumption. 13 g roughly correspond to the same number of particles (mmol) as 10 g βHB. Highest average concentrations of βHB were found after 2 and 3 h (mean=0.35 mmol/I; SEM=0.05) and remained levels to remain elevated for over 4 hours (see FIG. 1).
For determining pharmacokinetics, the patients were given 10 g racemic beta-hydroxybutyrate (βHB) orally dissolved in water in 3 different conditions: (1) post cibum (after meal) (2) ante cibum (before meal) (3) 1 hour before meal. Blood βHB and glucose concentrations were measured using a portable point-of-care blood ketone meter (Precision Xtra®) and matching test stripes at 5 points in time: 1) Baseline (directly before consumption), 2) 0.5 h after consumption, 3) 1 h after consumption, 4) 2 h after consumption, 5) 3 h after consumption and 6) 4 h after consumption. […] The levels dropped to near baseline after 2 hours.
Participants were given 10 g D-beta-hydroxybutyrate (βHB) orally dissolved in water in a fasted state. Blood βHB and glucose concentrations were measured using a portable point-of-care blood ketone meter (Precision Xtra®) and matching test stripes at 5 points in time: 1) Baseline (directly before consumption), 2) 0.5 h after consumption, 3) 1 h after consumption, 4) 2 h after consumption, 5) 3 h after consumption and 6) 4 h after consumption (see FIG. 5A). As with racemic βHB, highest average concentrations of βHB were found after approximately 1 h (mean=1.94 mmol/I; SEM=0.48).

[2] = Blood glucose levels after a single oral dose, measured at the same time as βHB; type: in vivo, human; conditions: 10 g single oral dose, ante cibum/fasted
Description: as §2, with “13 g roughly correspond to the same number of particles (mmol) as 10 g βHB. Highest average concentrations of βHB were found after 2 and 3 h (mean=0.35 mmol/I; SEM=0.05) and remained levels to remain elevated for over 4 hours (see FIG. 1).” left out
For determining pharmacokinetics, the patients were given 10 g racemic beta-hydroxybutyrate (βHB) orally dissolved in water in 3 different conditions: (1) post cibum (after meal) (2) ante cibum (before meal) (3) 1 hour before meal. Blood βHB and glucose concentrations were measured using a portable point-of-care blood ketone meter (Precision Xtra®) and matching test stripes at 5 points in time: 1) Baseline (directly before consumption), 2) 0.5 h after consumption, 3) 1 h after consumption, 4) 2 h after consumption, 5) 3 h after consumption and 6) 4 h after consumption. […]

migraine patients [3] = assay: Open-label pilot intervention: change in days with migraine from baseline (headache diary); type: in vivo, human
Description: as §1, with “D-βHB. […]” for “D-βHB.”
(§3) Monthly migraine attack frequency was summarized over the last 3 months and the average was used for baseline comparison. Patients were either instructed to take 20 g βHB, 26 g LL or 26 g LY in two daily doses (one hour before breakfast and one hour before dinner, respectively) for the duration of 4 weeks. They were instructed to refrain from any other changes in medication or food habits for the duration of that period. The primary outcome measure was changes in days with migraines from baseline. Days with migraine were recorded using a mobile app (myheadache.ch) or a pen and paper diary and averaged across participants.
Those two chronic migraineurs (20 or 22 migraine days/month) where instructed to take 20 g racemic βHB daily for 4 weeks and after a 1 week washout period double the dose to 40 g βHB for the following 4 weeks. Migraine days were recorded for the duration of the intervention and patients were instructed to refrain from any other life-style or medication changes. The mean baseline attack frequency was 21 migraine days (SEM=1) and dropped to 11.5 days after 4 weeks of 20 g βHB daily and 6 days after 4 weeks of 40 g βHB daily (see FIG. 4 A). This preventive effect is roughly proportional to the increase in dose, with 20 g βHB leading to 46% reduction in migraine days from baseline (SEM=18.86) and 40 g βHB to a 72% reduction (SEM=12.95; see FIG. 4 B).
as §3, with “were” for “were either”, “10” for “20”, “racemic βHB” for “βHB, 26 g LL or 26 g LY in two daily doses (one hour before breakfast and one hour before dinner, respectively)”, “8 weeks, followed by one week wash-out period and then 8 weeks of 10 g D-βHB daily.” for “4 weeks.”

migraine patients [4] = assay: Tolerability, adverse events and palatability in the pilot experiments; type: in vivo, human
Description: as §3, with “take” for “take 20 g βHB,”
as §3
as §3, with “were” for “were either”, “10” for “20”, “racemic βHB” for “βHB, 26 g LL or 26 g LY in two daily doses (one hour before breakfast and one hour before dinner, respectively)”, “8 weeks, followed by one week wash-out period and then 8 weeks of 10 g D-βHB daily.” for “4 weeks.”

migraine patients [5] = assay: as above; type: in vivo, human; conditions: 40 g daily, 4 weeks; 2 patients
[6] = 10 g daily, 8 weeks, 2 patients, mean baseline 13.5 days

- Half-life of blood βHB elevation (in words) ([1]; human): very short
- Time after which blood βHB levels dropped back to (near) baseline ([1]; human): 2 h
- Time of highest average βHB concentration ([1]; human): approximately 1 h
- Peak blood βHB level relative to LL [1]: approximately double
Compound: CC(O)CC(=O)O (racemic) [racemic βHB, beta-hydroxybutyric acid]
- Change in blood glucose levels after consumption [2]: substantial drop; also recorded: drop in blood glucose
- Average reduction in migraine days compared to baseline (migraine patients [3]; 10 g daily, 8 weeks, 2 high-frequency migraineurs (17 and 10 migraine days/month)): 18.5%
- Mean migraine days after intervention (migraine patients [3]; [6]): 11 days
- Average reduction in migraine days compared to baseline (migraine patients [3]; 20 g daily in two doses, 4 weeks, 4 medium-high frequency migraineurs (6-22 migraine days/month)): 51%
- Reduction in migraine days from baseline (migraine patients [3]; 20 g daily, 4 weeks, 2 chronic migraineurs (20 or 22 migraine days/month)): 46%
- Mean migraine days after intervention (migraine patients [3]; 20 g daily, 4 weeks, 2 chronic migraineurs, mean baseline 21 migraine days): 11.5 days
- Mean migraine days after intervention (migraine patients [3]; 20 g daily, 4 weeks, mean baseline 16.25 days): 8 days
- Range of reduction in migraine days compared to baseline (migraine patients [3]; 20 g daily, 4 weeks, range across patients): 25-80%
- Mean migraine days after intervention (migraine patients [3]; 40 g daily, 4 weeks, 2 chronic migraineurs, mean baseline 21 migraine days): 6 days
- Adverse events / tolerability (migraine patients [4]; 20 g daily, 4 weeks, 5 patients): severe nausea and vertigo; also recorded: gastrointestinal upset; also recorded: problematic
- Side-effects at increased dose (migraine patients [5]): increased side-effects further in both patients; also recorded: exacerbated the side-effects

- Time of highest average βHB concentration ([1]; human): 2 and 3 h
Compound: CC(C)C[C@H](N)C(=O)O [LL, L-leucine, reference compound]
- Adverse events / tolerability (migraine patients [4]; 26 g daily (13 g twice a day)): diarrhoea or nausea

Continued, compound first:

Compound: CC(O)CC(=O)O (racemic) [βHB, beta-hydroxybutyric acid]
- Median migraine days after the intervention (migraine patients [3]; 20 g daily, 4 weeks, median at baseline 18): 7 migraine days
- Tolerability (in words) (migraine patients [4]; in comparison to the ketogenic amino acids, dose and isomer not stated): well tolerated

Compound: CC(O)CC(=O)O [D-βHB, D beta-hydroxybutyric (βHB) acid]
- Time of highest average βHB concentration [1]: approximately 1 h
- Change in blood glucose levels after consumption [2]: completely stable; also recorded: does not seem to lead to a potentially unwanted drop in blood glucose levels; also recorded: no concomitant drop in blood glucose
- Mean migraine days after intervention (migraine patients [3]; [6]): 4.25 days
- Side-effects / tolerability (migraine patients [4]; 10 g daily, 8 weeks (2 months), 2 patients): No side-effects; also recorded: much better tolerated; also recorded: fewer gastrointestinal side-effects

Compound: NCCCC[C@H](N)C(=O)O [LY, L-lysine, reference compound]
- Adverse events / tolerability (migraine patients [4]; 26 g daily (13 g twice a day)): diarrhoea or nausea
